From US7855292B2, “Sulfonamide compounds” (Janssen Pharmaceutica NV, priority 2004, dated 2010)

Legend:
CCK-1 receptor = target: T1, CCK-1 receptor (Homo sapiens, UniProt P32238); assay: CCK1 binding assay ([125I]-BH-CCK-8S displacement, CHO-K1 membranes); details: membranes of CHO-K1 cells stably transfected with the CCK-1 receptor, 20 pM [125I]-BH-CCK-8S, 0.3 μM PD-134,308 present, 60 min at 21±3° C.; for Ki: read-out: CCK1 pKi (converted)
T1 construct: expressed in transfected cells; host or cells: CHO-K1
T1 sequence (P32238 1-428): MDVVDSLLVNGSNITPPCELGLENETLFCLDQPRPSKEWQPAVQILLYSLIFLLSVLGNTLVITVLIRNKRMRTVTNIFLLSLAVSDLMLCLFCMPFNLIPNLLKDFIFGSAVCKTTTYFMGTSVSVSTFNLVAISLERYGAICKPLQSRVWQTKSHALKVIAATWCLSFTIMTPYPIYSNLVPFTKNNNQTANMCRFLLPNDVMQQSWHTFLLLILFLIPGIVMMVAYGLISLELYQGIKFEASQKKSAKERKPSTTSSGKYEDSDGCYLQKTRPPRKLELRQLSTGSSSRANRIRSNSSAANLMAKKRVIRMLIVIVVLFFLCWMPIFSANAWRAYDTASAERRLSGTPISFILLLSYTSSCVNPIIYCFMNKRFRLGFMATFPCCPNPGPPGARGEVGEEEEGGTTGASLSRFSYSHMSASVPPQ
Method: 1. CCK1 Assay Development and Data Generation
CHO-K1 cells that had undergone stable transfection with the CCK-1 receptor were grown in DMEM supplemented with L-glutamine (2 mM), penicillin (50 units/mL) and streptomycin (50 μg/mL). Cells were cultured under continuous G418 selection (2 mM) and were harvested using a rubber cell scraper. CHO-K1 cells were sub-cultured a maximum of ten times before being reseeded from the original stocks.
Membranes were prepared from the stably transfected CHO-K1 cells. Frozen cell pellets (−40° C.) were thawed in 14 mL of buffer A (10 mM HEPES, 130 mM NaCl, 4.7 mM KCl, 5 mM MgCl, 1 mM EGTA and 15.4 mg/100 mL bacitracin at pH 7.2), adapted from Harper et al. (Br. J. Pharmacol. 1996, 118:1717-1726). The thawed pellets were homogenized using a Polytron PT-10 (7×1 s). The homogenates were centrifuged for 5 min at 1500 rpm (600×g), and the resulting pellets were discarded. The supernatants were re-centrifuged in order to collect the receptor-membrane pellets (25 min 15,000 rpm; 39,800×g), which were re-suspended in buffer A.
All assays were conducted in 96-well plates (GF/B millipore filter plates) using buffer A, with 0.3 μM PD-134,308, for the dilutions. The CCK-2 receptor ligand was included to eliminate the contribution of this receptor subtype to the binding. For the optimal cell number determination experiments 20 pM [^125I]-BH-CCK-8S (50 μL […] solution) was incubated with a range of cell concentrations ([…] to 12.5×10^5 cells/well) in a total volume of 150 μL. Total binding of [^125I]-BH-CCK-8S was determined in the presence of 15 μL of buffer A. Non-specific binding of [^125I]-BH-CCK-8S was determined in the presence of 15 μL of 100 μM 2-naphthalenesulphonyl L-aspartyl-(2-phenethyl)amide (2-NAP: see R. A. Hull et al. Br. J. Pharmacol. 1993, 108:734-740), a CCK-1 receptor selective antagonist that is structurally unrelated to the radioligand [^125I]-BH-CCK-8S. The assay preparation was incubated for 1 h at 21±3° C., and then the assay was terminated upon rapid filtration of the preparation under reduced pressure. The loaded filters were washed three times using undiluted PBS ([…]), and then the residues were transferred to 5 mL scintillation tubes. Bound radioactivity was determined using a gamma counter (count time=1 min). […] To validate the radioligand concentration and incubation time for the assay, saturation and kinetic binding studies were also conducted (see M. F. Morton, The Pharmacological Characterization of Cholecystokinin Receptors in the Human Gastrointestinal Tract. PhD Thesis, University of London, 2000). […] The assay was then terminated according to the procedure outlined above.
(§1) 3. Data Analysis for CCK1 and CCK2 Binding Assays
The pKi values were determined using the equation of Y.-C. Cheng and W. H. Prusoff (Biochem. Pharmacol., 1973, 22(23):3099-3108):
(§2) [formula] To circumvent problems associated with computer-assisted data analysis of compounds with low affinity, the data obtained in the current study were weighted according to a method described by Morton. In brief, 100% and 0% specific binding were defined independently using total binding and binding obtained in the presence of a high concentration of the reference antagonist, 2-NAP.

CCK2 receptor = target: T2, CCK2 receptor (Homo sapiens, UniProt P32239); assay: CCK2 binding assay ([125I]-BH-CCK-8S displacement, HEKZFP membranes); details: membranes of doxycycline-induced HEKZFP cells; 20 pM [125I]-BH-CCK-8S; 60 min at 21±3° C.; read-out: CCK2 pKi (converted)
T2 construct: analyzed for ZFP expression as well as CCK2R induction upon addition of doxycycline to the culture medium; endogenous in cells
T2 sequence (P32239 1-447): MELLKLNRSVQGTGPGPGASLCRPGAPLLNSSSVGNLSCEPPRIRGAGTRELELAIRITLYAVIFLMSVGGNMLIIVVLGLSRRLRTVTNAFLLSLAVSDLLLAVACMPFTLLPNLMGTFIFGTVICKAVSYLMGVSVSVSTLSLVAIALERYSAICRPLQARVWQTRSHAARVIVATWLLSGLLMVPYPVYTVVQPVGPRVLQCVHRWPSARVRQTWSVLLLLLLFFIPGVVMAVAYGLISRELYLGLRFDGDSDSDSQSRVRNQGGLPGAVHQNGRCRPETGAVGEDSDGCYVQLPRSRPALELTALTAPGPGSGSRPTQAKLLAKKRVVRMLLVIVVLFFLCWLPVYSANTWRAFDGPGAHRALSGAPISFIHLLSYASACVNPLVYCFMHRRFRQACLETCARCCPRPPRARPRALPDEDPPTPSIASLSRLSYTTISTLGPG
Method: 2. CCK2 Assay Development and Data Generation
Zinc Finger Proteins (ZFP) specific for the CCK2R gene were identified by Sangamo Biosciences. The ZFP domain was fused with the herpes simplex virus VP16 activation domain, and the fusion protein was subsequently cloned into the pcDNA3 mammalian expression vector (Invitrogen, San Diego, Calif.). […] After 2 weeks of selection in culture medium containing […] Zeocin (Invitrogen), sixty drug-resistant stable clones were isolated and analyzed for ZFP expression as well as CCK2R induction upon addition of doxycycline to the culture medium.
HEKZFP cells were grown in DMEM supplemented with L-glutamine (2 mM), penicillin (50 units/mL) and streptomycin (50 μg/mL) and 10% FBS (v/v).
Membranes were prepared from the HEKZFP cells after induction. […] The thawed pellets were homogenized using a Polytron PT-10 (7×1 s). The homogenates were centrifuged for 5 min at 1500 rpm (600×g), and the resulting pellets were discarded. The supernatants were re-centrifuged in order to collect the receptor-membrane pellets (25 min 15,000 rpm; 39,800×g), which were re-suspended in buffer A.
The assay preparation was incubated for 1 h at 21±3° C., and then the assay was terminated by rapid filtration of the preparation under reduced pressure. The loaded filters were washed three times using undiluted PBS (100 μL), and then 100 μL of scintillation fluid was added to the filter plate. Bound radioactivity was determined using a Topcount (Packard BioScience, Meriden, Conn.) with a count time of 1 min. […] To validate the radioligand concentration and incubation time for the assay, saturation and kinetic binding studies were also conducted (see M. F. Morton, The Pharmacological Characterization of Cholecystokinin Receptors in the Human Gastrointestinal Tract. PhD Thesis, University of London, 2000). […] The assay was then terminated according to the procedure outlined above.
as §1
The pKi values were determined using the equation of Y.-C.
as §2

SMILES	Ki (CCK-1 receptor) [nM]	Ki (CCK2 receptor) [nM]	CCK1 pKi (CCK-1 receptor)
COC(=O)[C@@H](NC(=O)c1ccc(I)cc1NS(=O)(=O)c1c(F)cccc1F)[C@H](C)c1ccc(Cl)c(Cl)c1 [Example 116, (2S,3R)-3-(3,4-Dichloro-phenyl)-2-[2-(2,6-difluoro-benzenesulfonylamino)-4-iodo-benzoylamino]-butyric acid methyl ester]	126	2000	–
O=C(N[C@@H](Cc1ccc(Cl)c(Cl)c1)C(=O)Nc1ccccc1)c1ccc(Cl)cc1NS(=O)(=O)c1cccc2nsnc12 [Example 139, (S)-2-(Benzo[1,2,5]thiadiazole-4-sulfonylamino)-4-chloro-N-[2-(3,4-dichloro-phenyl)-phenylcarbamoyl-ethyl]-benzamide]	79.4	631	–
COC(=O)C[C@H](Cc1ccc(Cl)cc1)NC(=O)c1ccc(Cl)cc1NS(=O)(=O)c1cccc2nccnc12 [Example 88, (S)-4-(4-Chloro-phenyl)-3-[4-chloro-2-(quinoxaline-5-sulfonylamino)-benzoylamino]-butyric acid methyl ester]	6310	631	–
COC(=O)[C@H](Cc1ccc(Cl)c(I)c1)NC(=O)c1ccc(I)cc1NS(=O)(=O)c1cccc2nccnc12 [Example 137, (S)-3-(4-Chloro-3-iodo-phenyl)-2-[4-iodo-2-(quinoxaline-5-sulfonylamino)-benzoylamino]-propionic acid methyl ester]	79.4	200	–
Cc1ccc(CC(NC(=O)c2ccc(I)cc2NS(=O)(=O)c2cccc3nccnc23)C(=O)O)cc1 (stereo in doubt) [Example 79, (S)-2-[4-Iodo-2-(quinoxaline-5-sulfonylamino)-benzoylamino]-3-p-tolyl-propionic acid]	63.1	1260	–
C[C@H](CN1C(=O)c2cc(Br)cc(NS(=O)(=O)c3cccc4nsnc34)c2C1=O)c1ccccc1 [Example 13, (S)-Benzo[1,2,5]thiadiazole-4-sulfonic acid [6-bromo-1,3-dioxo-2-(2-phenyl-propyl)-2,3-dihydro-1H-isoindol-4-yl]-amide]	1260	631	–
O=C(O)C[C@@H](Cc1ccc(Cl)c(Cl)c1)NC(=O)c1ccc(Cl)cc1NS(=O)(=O)c1cccc2nccnc12 [Example 82, (R)-3-[4-Chloro-2-(quinoxaline-5-sulfonylamino)-benzoylamino]-4-(3,4-dichloro-phenyl)-butyric acid]	794	7940	–

Continued, values first:

Ki (CCK-1 receptor) [nM]	Ki (CCK2 receptor) [nM]	CCK1 pKi (CCK-1 receptor)	SMILES
79.4	2510	–	O=C(N[C@H](Cc1ccccc1)C(=O)O)c1ccc(I)cc1NS(=O)(=O)c1c(F)cccc1F [Example 17, (R)-2-[2-(2,6-Difluoro-benzenesulfonylamino)-4-iodo-benzoylamino]-3-phenyl-propionic acid]
200	6310	–	O=C(NCCc1ccc(Cl)cc1Cl)c1ccc(Cl)cc1NS(=O)(=O)c1cccc2nsnc12 [Example 70, 2-(Benzo[1,2,5]thiadiazole-4-sulfonylamino)-4-chloro-N-[2-(2,4-dichloro-phenyl)-ethyl]-benzamide]
100	1580	–	O=C(NCCc1ccc(Br)cc1)c1ccc(Cl)cc1NS(=O)(=O)c1c(F)cccc1F [Example 80, N-[2-(4-Bromo-phenyl)-ethyl]-4-chloro-2-(2,6-difluoro-benzenesulfonylamino)-benzamide]
126	398	–	CC(CNC(=O)c1ccc(I)cc1NS(=O)(=O)c1cccc2nccnc12)c1ccc(Cl)c(Cl)c1 (racemic) [Example 61, (±)-N-[2-(3,4-Dichloro-phenyl)-propyl]-4-iodo-2-(quinoxaline-5-sulfonylamino)-benzamide]
501	7.94	–	O=C(N[C@@H](Cc1cccc(I)c1)C(=O)O)c1ccc(I)cc1NS(=O)(=O)c1cccc2nsnc12 [Example 135, (S)-2-[2-(Benzo[1,2,5]thiadiazole-4-sulfonylamino)-4-iodo-benzoylamino]-3-(3-iodo-phenyl)-propionic acid]
126	2510	–	CC(Cc1ccc(Cl)cc1)NC(=O)c1ccc(Br)cc1NS(=O)(=O)c1cccc2nsnc12 (racemic) [Example 53, (±)-2-(Benzo[1,2,5]thiadiazole-4-sulfonylamino)-4-bromo-N-[2-(4-chloro-phenyl)-1-methyl-ethyl]-benzamide]
–	–	7.5	O=C(NCC(c1ccc(Cl)cc1)c1ccc(Cl)cc1)c1ccc(Cl)cc1NS(=O)(=O)c1cccc2nsnc12 [Example 6, 2-(Benzo[1,2,5]thiadiazole-4-sulfonylamino)-N-[2,2-bis-(4-chloro-phenyl)-ethyl]-4-chloro-benzamide]
